Test results published in patent US5187160A, “Cephem compound” (Fujisawa Pharmaceutical Co., Ltd., priority 1989, dated 1993).
Where a name gives a salt, the structure may show the parent alone.

System: P. aeruginosa 26
Experiment: In vitro antibacterial activity, two-fold agar-plate dilution method (MIC)
Format: cell-based
Settings: Pseudomonas aeruginosa, heart infusion agar, 10^8 viable cells per ml, 37° C. for 20 hours, read-out: MIC (minimal inhibitory concentration)
Experimental: Now in order to show the utility of the object compound [I], the test data on MIC (minimal inhibitory concentration) of representative compound [I] of this invention is shown in the following.
In vitro antibacterial activity was determined by the two-fold agar-plate dilution method as described below.
One loopful of an overnight culture of each test strain in Trypticase-soy broth (10^8 viable cells per ml) was streaked on heart infusion agar (HI-agar) containing graded concentrations of representative test compound, and the minimal inhibitory concentration (MIC) was expressed in terms of μg/ml after incubation at 37° C. for 20 hours.

CCON=C(C(=O)NC1C(=O)N2C(C(=O)[O-])=C(C[n+]3ccc(N)n3CCO)CSC12)c1csc(N)n1 (stereo not drawn) [Example 2, Sulfuric acid salt of 7β-[2-(2-aminothiazol-4-yl)-2-ethoxyiminoacetamido]-3-[3-amino-2-(2-hydroxyethyl)-1-pyrazolio]methyl-3-cephem-4-carboxylate (syn isomer)]
MIC: 1.56 µg/mL
